Data published in US20150374767A1, “Treatment of Cancer” (priority 2013, published 2015).
Entries after “also recorded” stand apart in the source; their conditions may differ. Structures can show the parent of a compound that is named as a salt.

Assays:
VEGFR2 = conditions: cited from earlier work; for IC50: read-out: IC50 for VEGFR2 (KDR)
H1666 = conditions: H1666, wild-type EGFR; read-out: IC50, inhibiting survival of lung cancer cell line; cited from earlier work
NCI-H1975 = conditions: NCI-H1975, L858R/T790M EGFR; read-out: IC50, inhibiting survival of lung cancer cell line; cited from earlier work
H3255 = conditions: H3255, Gefitinib sensitive L858R; cited from earlier work
HuH7 = format: cell-based, human
SPC111 = assay: combination with HSV1716, Chou-Talalay, SPC111; format: cell-based, human; conditions: SPC111, HSV1716 moi 0.5 and 0.05, 72 hours
HSV1716gfp = assay: GFP expression during infection with HSV1716gfp (drug toxicity to virus); format: cell-based, herpes simplex virus
One58 = format: cell-based, human
UVW = format: cell-based, human
Virttu cell panel = assay: combination with HSV1716, DCP cell death, Chou-Talalay analysis, cell panel; format: cell-based, human
HepG2-luc = format: cell-based, human
Ovcar3 = format: cell-based, human
Virttu cell line panel = assay: cells; format: cell-based; conditions: Homo sapiens; most/all cell lines of panel, 72 hrs; read-out: IC50 (DCP leakage), range over cell lines
U87 = format: cell-based, human
CP70 = format: cell-based, human
SKOV3 = format: cell-based, human
Hep3B = format: cell-based, human
PDGFRβ = PDGFRβ (Homo sapiens, UniProt P09619); conditions: cited from earlier work
c-Met = c-Met (Homo sapiens, UniProt P08581); conditions: cited from earlier work
B-Raf = conditions: read-out: IC50 for B-Raf; cited from earlier work
[1] = test system: human gastric carcinoma xenograft; assay: patient-derived human gastric carcinoma xenograft model; parameters: species or system mice; conditions: mouse, in vivo
Experimental: HSV1716 (Seprehvir) was used in a personalised oncology study. Patient-derived tumour samples were obtained from a gastric carcinoma. There have been no previous in vitro or in vivo pre-clinical studies with Seprehvir in human gastric carcinoma cells/xenografts. Seprehvir was stored at −70° C., and multiple vials were provided to avoid repeated freeze/thawing.
Two groups of 3 mice with gastric carcinoma implants were treated with 2×10^6 pfu Seprehvir by either intratumoural (IT) or intravenous (IV) routes of administration. Control mice (n=3) received no treatment and in these mice the implants grew rapidly and all were sacrificed within 18 days (FIG. 61). For IV injection, Seprehvir was administered on days 0, 3, 10 and 18, at which point the tumors were too large and the mice were sacrificed.
For IT injection of Seprehvir, 2×10^6 pfu was administered on days 0, 3, 10, 18, 21 and 25.
. Control mice (n=3) received no treatment and in these mice the implants grew rapidly and all were sacrificed within 18 days (FIG. 62). […]. A follow-on study with HSV1716 administering more frequent by IV dosing at the higher concentration of 10^7 pfu was performed using the same human gastric carcinoma xenograft model. […].
Groups of 3 mice received IV injection of HSV1716 at 1×10^7 pfu on days 1, 3, 5, 8, 10, 12, 15, 17 and 19. […]

PARP = PARP cleavage by Western blotting; format: cell-based, human; conditions: in combination with HSV1716

Chain of PDGFRβ (P09619 33-1106): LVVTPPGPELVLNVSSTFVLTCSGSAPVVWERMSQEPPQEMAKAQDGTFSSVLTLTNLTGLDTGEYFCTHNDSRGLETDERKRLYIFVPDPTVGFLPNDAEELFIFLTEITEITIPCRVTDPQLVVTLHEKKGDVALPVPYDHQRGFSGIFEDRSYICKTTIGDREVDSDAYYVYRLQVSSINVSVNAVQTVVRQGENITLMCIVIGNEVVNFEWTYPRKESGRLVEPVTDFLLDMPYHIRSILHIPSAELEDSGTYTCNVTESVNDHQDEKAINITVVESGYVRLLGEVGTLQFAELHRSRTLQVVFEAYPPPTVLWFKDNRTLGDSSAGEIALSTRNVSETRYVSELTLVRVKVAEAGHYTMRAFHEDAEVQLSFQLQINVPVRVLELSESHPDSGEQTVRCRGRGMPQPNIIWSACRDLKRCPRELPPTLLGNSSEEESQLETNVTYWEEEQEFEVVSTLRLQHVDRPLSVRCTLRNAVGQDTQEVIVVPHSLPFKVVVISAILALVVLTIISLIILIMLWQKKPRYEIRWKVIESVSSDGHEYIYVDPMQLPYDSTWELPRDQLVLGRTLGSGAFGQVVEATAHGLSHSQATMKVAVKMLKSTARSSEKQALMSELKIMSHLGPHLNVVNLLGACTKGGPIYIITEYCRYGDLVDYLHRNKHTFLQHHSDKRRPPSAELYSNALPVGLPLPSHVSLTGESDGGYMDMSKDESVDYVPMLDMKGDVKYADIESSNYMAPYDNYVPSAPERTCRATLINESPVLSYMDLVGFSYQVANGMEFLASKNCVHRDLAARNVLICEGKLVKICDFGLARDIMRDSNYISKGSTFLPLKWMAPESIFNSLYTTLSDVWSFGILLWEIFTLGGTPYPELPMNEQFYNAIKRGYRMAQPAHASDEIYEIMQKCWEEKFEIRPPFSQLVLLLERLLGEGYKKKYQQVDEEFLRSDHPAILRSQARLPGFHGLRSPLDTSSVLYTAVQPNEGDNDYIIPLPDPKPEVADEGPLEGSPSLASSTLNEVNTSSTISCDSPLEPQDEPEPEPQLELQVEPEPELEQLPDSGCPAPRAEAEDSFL
Chain of c-Met (P08581 25-1390): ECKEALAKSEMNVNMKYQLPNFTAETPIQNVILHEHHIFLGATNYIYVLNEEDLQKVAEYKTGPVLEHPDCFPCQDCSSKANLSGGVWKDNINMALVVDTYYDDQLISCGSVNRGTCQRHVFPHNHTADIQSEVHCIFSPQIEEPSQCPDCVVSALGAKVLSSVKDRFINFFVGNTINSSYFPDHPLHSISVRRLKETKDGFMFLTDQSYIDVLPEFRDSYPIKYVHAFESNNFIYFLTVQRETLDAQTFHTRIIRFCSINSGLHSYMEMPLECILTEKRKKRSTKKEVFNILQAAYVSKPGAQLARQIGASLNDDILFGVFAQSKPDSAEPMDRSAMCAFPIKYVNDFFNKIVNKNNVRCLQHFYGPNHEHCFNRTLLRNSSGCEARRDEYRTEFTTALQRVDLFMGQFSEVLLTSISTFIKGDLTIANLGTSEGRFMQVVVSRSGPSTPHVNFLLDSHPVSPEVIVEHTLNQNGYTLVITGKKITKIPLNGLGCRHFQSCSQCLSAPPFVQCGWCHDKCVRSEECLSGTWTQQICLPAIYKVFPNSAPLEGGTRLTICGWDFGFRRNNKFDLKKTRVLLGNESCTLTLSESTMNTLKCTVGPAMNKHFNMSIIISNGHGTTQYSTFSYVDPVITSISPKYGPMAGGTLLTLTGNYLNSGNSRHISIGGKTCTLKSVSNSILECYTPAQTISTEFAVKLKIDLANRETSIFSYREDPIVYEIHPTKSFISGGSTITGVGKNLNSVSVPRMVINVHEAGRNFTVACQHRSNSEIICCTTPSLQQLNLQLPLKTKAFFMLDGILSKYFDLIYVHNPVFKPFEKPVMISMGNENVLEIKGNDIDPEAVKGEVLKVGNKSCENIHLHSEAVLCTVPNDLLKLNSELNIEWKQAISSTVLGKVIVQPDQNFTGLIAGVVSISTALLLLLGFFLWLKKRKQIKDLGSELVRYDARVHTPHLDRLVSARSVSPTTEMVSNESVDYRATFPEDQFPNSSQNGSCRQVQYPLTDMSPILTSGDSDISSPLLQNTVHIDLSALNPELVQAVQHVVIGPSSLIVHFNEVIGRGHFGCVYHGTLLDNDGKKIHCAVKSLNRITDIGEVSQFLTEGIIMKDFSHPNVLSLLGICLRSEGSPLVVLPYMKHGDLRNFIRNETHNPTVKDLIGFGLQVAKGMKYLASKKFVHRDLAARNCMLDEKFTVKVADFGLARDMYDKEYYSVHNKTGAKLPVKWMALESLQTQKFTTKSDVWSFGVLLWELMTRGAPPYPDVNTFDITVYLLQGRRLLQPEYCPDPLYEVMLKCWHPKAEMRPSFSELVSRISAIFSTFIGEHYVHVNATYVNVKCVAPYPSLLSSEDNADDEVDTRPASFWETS

CCN1CCN(Cc2ccc(-c3cc4c(N[C@H](C)c5ccccc5)ncnc4[nH]3)cc2)CC1 [AEE788, 6-[4-[(4-Ethylpiperazin-1-yl)methyl]phenyl]-N-[(1R)-1-phenylethyl]-7H-pyrrolo[2,3-d]pyrimidin-4-amine]
IC50 (VEGFR2): 77 nM

CN(C)CC=CC(=O)Nc1cc2c(Nc3ccc(F)c(Cl)c3)ncnc2cc1O[C@H]1CCOC1 [Afantinib, N-[4-[(3-Chloro-4-fluorophenyl)amino]-7-[[(3S)-tetrahydro-3-furanyl]oxy]-6-quinazolinyl]-4(dimethylamino)-2-butenamide]
IC50 (H1666): < 100 nM
IC50 (NCI-H1975): < 100 nM
IC50, inhibiting survival of lung cancer cell line (H3255): subnanomolar

N#CC1(c2ccc(NC(=O)c3cccnc3NCc3ccncc3)cc2)CCCC1 [Apatinib, N-[4-(1-cyanocyclopentyl)phenyl-2-(4-picolyl)amino-3-Nicotinamide methanesulphonate]
IC50 (VEGFR2): 2.34 nM

Nc1nccc(Oc2ccc(NC(=O)c3c[nH]cc(-c4ccc(F)cc4)c3=O)cc2F)c1Cl [BMS 794833, N-(4-((2-amino-3-chloropyridin-4-yl)oxy)-3-fluorophenyl)-5-(4-fluorophenyl)-4-oxo-1,4-dihydropyridine-3-carboxamide]
IC50 (VEGFR2): 15 nM

COc1cc2c(Oc3ccc4[nH]c(C)cc4c3F)ncnc2cc1OCCCN1CCCC1 [Cediranib, 4-[(4-fluoro-2-methyl-1H-indol-5-yl)oxy]-6-methoxy-7-[3-(pyrrolidin-1-yl)propoxy]quinazoline]
IC50 (VEGFR2): 0.5 nM

C[C@@H](Oc1cc(-c2cnn(C3CCNCC3)c2)cnc1N)c1c(Cl)ccc(F)c1Cl [Crizotinib, 3-[(1R)-1-(2,6-dichloro-3-fluorophenyl)ethoxy]-5-(1-piperidin-4-ylpyrazol-4-yl)pyridin-2-amine]
synergy/antagonism with HSV1716 on cell death (Chou-Talalay) (HuH7): some limited synergy
synergy/antagonism with HSV1716 on cell death (Chou-Talalay) (SPC111): some limited synergy
effect on GFP expression during HSV1716gfp infection (HSV1716gfp; CP70, moi 0.5 and 0.05, 72 hrs): increased GFP expression
effect on GFP expression during HSV1716gfp infection (HSV1716gfp; Hep3B, moi 0.5 and 0.05, 72 hrs): decreased GFP expression
effect on GFP expression during HSV1716gfp infection (HSV1716gfp; HepG2-luc, both moi (0.5 and 0.05), 72 hrs): little effect on GFP expression
effect on GFP expression during HSV1716gfp infection (HSV1716gfp; HuH7, moi 0.5 and 0.05, 72 hrs): decreased GFP expression
effect on GFP expression during HSV1716gfp infection (HSV1716gfp; One58, moi 0.5 and 0.05, 72 hrs): increased GFP expression
effect on GFP expression during HSV1716gfp infection (HSV1716gfp; Ovcar3, moi 0.5 and 0.05, all drug doses, 72 hrs): little effect on GFP expression
effect on GFP expression during HSV1716gfp infection (HSV1716gfp; SPC-111, moi 0.5 and 0.05, all drug doses, 72 hrs): little effect on GFP expression
effect on GFP expression during HSV1716gfp infection (HSV1716gfp; Skov3, moi 0.5 and 0.05, all drug doses, 72 hrs): little effect on GFP expression
effect on GFP expression during HSV1716gfp infection (HSV1716gfp; U87, moi 0.5 and 0.05, 72 hrs): increased GFP expression
effect on GFP expression during HSV1716gfp infection (HSV1716gfp; UVW, moi 0.5 and 0.05, 72 hrs): decreased GFP expression
synergy/antagonism with HSV1716 on cell death (Chou-Talalay) (One58): antagonistic
synergy/antagonism with HSV1716 on cell death (Chou-Talalay) (UVW): strongly synergistic
number of cell lines in which moi 0.05 generated synergy (Virttu cell panel): 8 of the 9
number of cell lines in which moi 0.5 generated synergy (Virttu cell panel): 3 of the 9
synergy/antagonism with HSV1716 on cell death (Chou-Talalay) (HepG2-luc): synergistic
synergy/antagonism with HSV1716 on cell death (Chou-Talalay) (Ovcar3): some limited synergy
IC50 (Virttu cell line panel): 2000 to 30000 nM
synergy/antagonism with HSV1716 on cell death (Chou-Talalay) (U87): strongly synergistic
synergy/antagonism with HSV1716 on cell death (Chou-Talalay) (CP70): strongly synergistic
synergy/antagonism with HSV1716 on cell death (Chou-Talalay) (SKOV3): some limited synergy

COc1cc2ncnc(Nc3ccc(F)c(Cl)c3)c2cc1OCCCN1CCOCC1 [Gefitinib, N-(3-chloro-4-fluoro-phenyl)-7-methoxy-6-(3-morpholin-4-ylpropoxy)quinazolin-4-amine]
overall synergy/antagonism with HSV1716 on cell death (Virttu cell panel): antagonistic with HSV1716 in all cell lines; also recorded: mostly antagonistic
synergy/antagonism with HSV1716 on cell death (Chou-Talalay) (Hep3B): Synergy

CCCNC(=O)Nc1ccc(Oc2ncnc3cc(OC)c(OC)cc23)cc1Cl [KRN 633, N-[2-Chloro-4-[(6,7-dimethoxy-4-quinazolinyl)oxy]phenyl]-N′-propylurea]
IC50 (VEGFR2): 160 nM
IC50 (PDGFRβ): 9850 nM

CN(C[C@@H]1COCCO1)S(=O)(=O)Nc1ccc2ccc3ncc(-c4cnn(C)c4)cc3c(=O)c2c1 [MK-2461, N-((2R)-1,4-Dioxan-2-ylmethyl)-N-methyl-N′-[3-(1-methyl-1H-pyrazol-4-yl)-5-oxo-5H-benzo[4,5]cyclohepta[1,2-b]pyridin-7-yl]sulfamide]
IC50 (PDGFRβ): 22 nM
IC50 (c-Met): 2.5 nM

CNC(=O)c1cc(Oc2ccc(NC(=O)Nc3ccc(Cl)c(C(F)(F)F)c3)c(F)c2)ccn1.O [Regorafenib, 4-[4-({[4-Chloro-3-(trifluoromethyl)phenyl]carbamoyl}amino)-3-fluorophenoxy]-N-methylpyridine-2-carboxamide hydrate]
tumour growth inhibition [1]: highly effective at tumour growth inhibition

CCN(CC)CCNC(=O)c1c(C)[nH]c(/C=C2\C(=O)Nc3ccc(F)cc32)c1C [Sunitinib, N-(2-diethylaminoethyl)-5-[(Z)-(5-fluoro-2-oxo-1H-indol-3-ylidene)methyl]-2,4-dimethyl-1H-pyrrole-3-carboxamide]
synergy/antagonism with HSV1716 on cell death (Chou-Talalay) (SPC111): strongly synergistic
effect on GFP expression during HSV1716gfp infection (HSV1716gfp; CP70, moi 0.05, 72 hrs): more pronounced
effect on GFP expression during HSV1716gfp infection (HSV1716gfp; SPC111, moi 0.05, 72 hrs): more pronounced
effect on GFP expression during HSV1716gfp infection (HSV1716gfp; all 9 cell lines tested, moi 0.5 and moi 0.05, 72 hours): increased GFP expression
synergy/antagonism with HSV1716 on cell death (Chou-Talalay) (One58): strongly synergistic
synergy/antagonism with HSV1716 on cell death (Chou-Talalay) (UVW): antagonistic
PARP cleavage (executioner phase of apoptosis) (PARP; Hep3B cells): PARP cleavage demonstrated by Western blotting
PARP cleavage (executioner phase of apoptosis) (PARP; Ovcar3 cells): PARP cleavage demonstrated by Western blotting
number of cell lines in which moi 0.05 generated synergy (Virttu cell panel): 9 of the 10
number of cell lines in which moi 0.5 generated synergy (Virttu cell panel): 7 of the 10
number of cell lines tested with clear synergy signals / synergism with HSV1716 (Virttu cell panel): 9 of the 10
synergy/antagonism with HSV1716 on cell death (Chou-Talalay) (HepG2-luc): strongly synergistic
IC50 (Virttu cell line panel): 500 to 15000 nM
synergy/antagonism with HSV1716 on cell death (Chou-Talalay) (U87): strongly synergistic
synergy/antagonism with HSV1716 on cell death (Chou-Talalay) (CP70): strongly synergistic
synergy/antagonism with HSV1716 on cell death (Chou-Talalay) (SKOV3): some evidence of synergy

Cc1[nH]c(/C=C2\C(=O)Nc3ccccc32)c(C)c1CCC(=O)O [TSU-68, (Z)-3-(2,4-dimethyl-5-((2-oxoindolin-3-ylidene)methyl)-1H-pyrrol-3-yl)propanoic acid]
Ki (VEGFR2; read-out: Ki for VEGFR2 (Flk-1/KDR)): 2100 nM
Ki (PDGFRβ; read-out: Ki for PDGFRβ): 8 nM

Cc1cc(F)c(Nc2ncnc3cc(OCc4ccccc4)ccc23)cc1O [ZM 323881 HCl, 5-((7-Benzyloxyquinazolin-4-yl)amino)-4-fluoro-2-methylphenol hydrochloride]
IC50 (VEGFR2): < 2 nM

N-(2-fluoro-4-((2-(4-(4-methylpiperazin-1-yl)piperidine-1-carboxamido)pyridin-4-yl)oxy)phenyl)-N-(4-fluorophenyl)cyclopropane-1,1-dicarboxamide [Golvatinib]
IC50 (VEGFR2): 16 nM
IC50 (c-Met): 14 nM
